We go through two compounds from US10653670B2, “Use of indole compounds for fat reduction and skin and soft tissue tightening” (Alevere Medical Corporation, priority 2013, dated 2020).

Series [1] relates to adipocytes over nerve cells, dermal cells, muscle cells, and endothelial cells. Kind of series: LIVE/DEAD assay, tissue preference (adipocytes versus other cell types). It is filed as cell-based, human. As to conditions: Example 2, FIGS. 5-8 and table; 2 and 5 hours in FIGS. 6-8.
The test system of series [2] is adipocytes. The series is described as follows: Histology of injected immediate ex-vivo abdominoplasty tissue. The series is classed as cell-based, human. The protocol:
As the indole group has not been previously used for intralesional fat reduction, a method of obtaining histologic specimens had to be modified.
The tissue model described herein, therefore, was immediate ex-vivo abdominoplasty tissue that had been permitted for use by the surgical patient. Segments of abdominal skin and subcutaneous fat were injected with identified test compounds, plus a negative saline control and three positive controls: 1% deoxycholate, the commercial preparation of Aqualyx®, and the Network Lipolysis PC/DC formula.
Because there was no host; inflammatory changes would not be expected. This study was only performed to assess the immediacy of adipocyte changes, and to determine the method of action of each compound.

The conditions of series [3]: recent reports following clinical trials; cited from earlier work.
Series [4] has as its system fat pad (human fat graft). The series is described as follows: Nude mouse study, injection into engrafted human fat pad. The series is classed as in vivo. On the procedure: This example reports exemplary compounds reported in Example 1. A mouse study was performed to test compounds of the embodiments. Eight test compounds were injected. In addition to normal saline and compound diluent (DMSO plus excipients) (negative controls), positive controls included 1% sodium deoxycholate (DC, MasterPharm, Richmond Hill, N.Y.), phosphatidylcholine 25 mg/ml plus deoxycholate 12 mg/ml (PC/DC, PC25/DC 12, MasterPharm, Richmond Hill, N.Y.), and Aqualyx®, a sodium deoxycholate in a lactose carrier (Marllor International, Italy).
Seventy nude mice were chosen for a study of safety and efficacy of injectable lipolytic compounds. Human fat was harvested one hour prior to the injection procedure. 0.5 cc of fat was loaded into micro syringes. Engraftment took place under general anesthesia. Four weeks later, the fat pad size was measured and compounds injected precisely using a 6 mm meso needle in the center and 0.5 cm cephalad and caudad to the midpoint. Mice were sacrificed at one day, one week, two weeks and 4 weeks. […]
Each fat pad was measured and weighed on the analytical balance at the time of sacrifice. […]
Size reduction after compound injection was measured against the measurement taken just previous to injection of compounds. […] Compound dose was calculated based on the average weight of each mouse and was based on the maximum safe dose of PC/DC. […]

For another series, the system named is skeletal muscle cells. The series is described as follows: LIVE/DEAD calcein/ethidium bromide assay, muscle cell kill rate. The series is classed as cell-based, human. On the procedure: (§1) The time and concentration dependent effects of drug substance on both cell viability and toxicity were evaluated using a two-color fluorescence assay that measures plasma membrane integrity and intracellular enzyme activity. Live cells are determined by the strong fluorescence of calcein AM upon enzymatic conversion. […] The ratio of ethidium to calcein fluorescence is an excellent measure of the relative amount of live and dead cells.
(§2) Initial screening was performed using a variety of cell viability and cytotoxicity assays, including Presto Blue® (Invitrogen, Grand Island, N.Y.), Alamar Blue® (Invitrogen, Grand Island, N.Y.), Cyto-Tox One® (Promega, Madison, Wis.), and Cell Titer Glo® (Promega, Madison, Wis.). […] An MTT terazolium assay was performed, as well as LDH and ATP based assays. […] The LIVE/DEAD® for mammalian cells assay was used. LIVE/DEAD® for mammalian cells assay is a calcein (live read)/ethidium bromide (dead) multiplex assay.
(§3) A sample of DMSO/PBS was a negative control. A sample of Aqualyx® was a positive control. In the table, 24M is phosphatidylcholine 25 mg/ml plus deoxycholate 12 mg/and 25N is C 50/DC24; these were positive controls. The numbers in the table refer to averaged ethidium numbers. The percentages represent the relative kill rate for each cell type when rated against the adipocyte kill rate for that compound. All tissue types were tested on the same plate against adipocytes in order to standardize results.
(§4) Over seventy compounds of the embodiments were tested for adipocytolysis, then for tissue preference. A consistent assay with multiplex information was a calcein/ethidium bromide assay that assesses cell viability and cell death simultaneously. Cell viability was checked using the Countess device. All plates were inoculated with 100 microliters of the appropriate cell types. A 6 well repeat was used to verify results. Cell types used included cultured human adult derived adipocytes, dermal fibroblasts, skeletal muscle cells, and endothelial cells (Cell Applications, Inc., San Diego, Calif.). Human peripheral nerve cells (Innoprot, Spain) were also used.
(§5) Compounds were formulated using a DMSO/PBS excipient. A 10 mg/ml concentration was used. One hundred microliters of test compound was inserted into 6 wells of 5 cell types, placed in adjacent rows. The plates were incubated for 4 hours. Indicator was added to each well, and plates were read at 45 minutes using a fluorescence spectrophotometer (Molecular Devices, Sunnyvale, Calif.).

The test system of series [5] is adipocytes. Kind of series: LIVE/DEAD calcein/ethidium bromide assay, adipocyte kill rate. The series is classed as cell-based, human. The protocol: as §1, §2, §3, §4, §5
The subject of a further series is endothelial cells. Kind of series: LIVE/DEAD calcein/ethidium bromide assay, endothelial cell kill rate. It is filed as cell-based, human. On the procedure: as §1, §2, §3, §4, §5
A further series concerns dermal fibroblasts. It is filed as cell-based. On the procedure: as §1, §2, §3, §4, §5
In another series the test system is nerve cells. It is filed as cell-based. On the procedure:
as §1, §2, §3, §4, §5

Setting [6] is: kill rate (ethidium), same plate as adipocytes.

“Also recorded” adds a separate entry of the source.

For the compound `C[C@H](CCC(=O)[O-])[C@H]1CC[C@H]2[C@@H]3CC[C@@H]4C[C@H](O)CC[C@]4(C)[C@H]3C[C@H](O)[C@]12C.[Na+]` [1% deoxycholate, sodium deoxycholate], the “tissue specificity / tissue preference” value in series [1] was “indiscriminate”. For the same compound, the “histology finding / mechanism of action” value with adipocytes [2] (at 4 hours) is recorded as “Cell wall lysis”. In [3], the “instances of facial nerve palsy” value is listed as “two” and the “numbness with paresthesias, patients treated” value was “up to 40%”. Also, the “gross effect on fat pad graft” value in [4] (four weeks after injection) is “Visible and measurable fat reduction”. In addition, the “gross effect on fat pad graft” value in [4] (one day after injection) is recorded as “Immediate necrosis”.

For the compound `O=C(O)c1cc2ccccc2[nH]1` [Compound 29, 1H-indole-2-carboxylic acid], the “Muscle, averaged ethidium numbers” value with skeletal muscle cells (setting [6]) was 14. Besides, in the series on skeletal muscle cells (percentage in brackets), the “Muscle, relative kill rate rated against the adipocyte kill rate” value is listed as 17%. Moreover, the “tissue specificity / tissue preference” value in [1] is “most strongly tissue preferential; also recorded: strongly adipocyte preferential”. Besides, the “histology finding / mechanism of action” value with adipocytes [2] (at 12 hours) is “primarily an apoptotic mechanism”. Besides, in the series on adipocytes [5] (Example 2, FIGS. 5-8 and table), the “adipocyte kill rate / aggressiveness” value is “less aggressive; also recorded: equivalent to that of Compounds D and E”. In addition, the “Adipocyte, averaged ethidium numbers” value with adipocytes [5] (kill rate (ethidium), all tissue types on the same plate) is listed as 83. Besides, the “Endothelial, averaged ethidium numbers” value in the series with endothelial cells (setting [6]) is listed as 8.5. Also, the “Endothelial, relative kill rate rated against the adipocyte kill rate” value with endothelial cells (percentage in brackets) is on record as 10%. For the same compound, the “Dermis, averaged ethidium numbers” value in the series with dermal fibroblasts (setting [6]) turned out to be 9. Besides, the “Dermis, relative kill rate rated against the adipocyte kill rate” value in the series on dermal fibroblasts (percentage in brackets) was 11%. Moreover, the “Nerve, averaged ethidium numbers” value in the series on nerve cells (setting [6]) amounted to 15. In the series with nerve cells (percentage in brackets), the “Nerve, relative kill rate rated against the adipocyte kill rate” value was 18%.
